Test results published in article PMC8842310 (Journal of Medicinal Chemistry, 2022).

Test system: CDI iCell cardiomyocytes
Settings: geometric mean of the MEC values for beat period, Na+ slope, Na+ amplitude, field duration

Structure (SMILES): CCNC(=N)NC(=O)Nc1c(CC)cc(NS(=O)(=O)c2ccccc2)cc1CC [5n, N-(3,5-Diethyl-4-(3-(N-ethylcarbamimidoyl)ureido)phenyl)benzenesulfonamide]
- MEC Gmean cardiomyocytes: 8.9 µM
